Measured values from publication PMC3580115 (Journal of natural products, 2012).
Converted amounts (≈) assume the structure as drawn. Where two headings read alike, the source gives them in different places.

Tests used:
[1] = MTT cytotoxicity assay, panel statement over the five cancer cell lines; assay type: cell-based, human; conditions: human
[2] = tested on: five human cancer cell lines; assay: as above; assay type: cell-based; conditions: for selectivity index compared to the Beas-2B cell line: cancer cell lines versus Beas-2B
[3] = from bulbs of Z. candida; cited from earlier work
[4] = comparison in words, Table S1 not available

| SMILES | IC50 at 48 h [1] | also measured |
| --- | --- | --- |
| COc1cc2c(c(OC)c1OC)[C@@H](OC)O[C@@H]1CC=C3CCN(C)[C@H]3[C@H]21 [Compound 6, O-methylnerinine] | > 10 µM | – |
| CO[C@@H]1C=C[C@@]23c4cc5c(cc4CN(C[C@@H]2O)[C@H]3C1)OCO5 [Compound 2, haemanthamin] | 0.81 to 13 µM | selectivity index compared to the Beas-2B cell line [2]: ≤ 10; cytotoxicity compared with positive control cis-platin [2, 4]: more potent cytotoxicity than one of the positive controls (cis-platin) |
| CO[C@@H]1C=C[C@@]23c4cc5c(cc4C(O)[N+](C)(C[C@@H]2O)[C@H]3C1)OCO5.[Cl-] (stereo partly drawn) [Compound 1, N-methylhaemanthidine chloride] | 0.81 to 13 µM | selectivity index compared to the Beas-2B cell line [2]: ≤ 10; cytotoxicity compared with positive control cis-platin [2, 4]: more potent cytotoxicity than one of the positive controls (cis-platin) |
| O=C1N[C@H]2[C@H](O)[C@H](O)[C@@H](O)C[C@@H]2c2cc3c(c(O)c21)OCO3 (relative stereo) [trans-dihydronarciclasine] | – | IC50 as cytostatic agent [3]: 3.2 ng/mL (≈ 0.0103 µM) |
| CC(C)CCn1c(=O)c2cc3c(cc2c2ccccc21)OCO3 [Compound 10, N-isopentylcrinasiadine] | > 10 µM | – |
| CCOC(=O)CCn1c(=O)c2cc3c(cc2c2ccccc21)OCO3 [Compound 7, N-ethoxycarbonylethylcrinasiadine] | > 10 µM | – |
| Cn1c(=O)c2cc3c(cc2c2ccccc21)OCO3 [Compound 11, N-methylcrinasiadine] | > 10 µM | – |
| CN1Cc2cc3c(cc2-c2ccccc21)OCO3 [Compound 13, 5,6-dihydrobicolorine] | > 10 µM | – |
| CO[C@@H]1C=C[C@@]23c4cc5c(cc4CO[C@]2(O)CN(C)[C@H]3C1)OCO5 [Compound 4, (+)-tazettine] | > 10 µM | – |
| c1ccc2c(c1)ncc1cc3c(cc12)OCO3 [Compound 12, trisphaeridine] | > 10 µM | – |
| CO[C@@H]1C=C[C@@]23c4cc5c(cc4C(=O)O[C@H]2CN(C)[C@H]3C1)OCO5 [Compound 3, 3-epimacronine] | > 10 µM | – |
| CCOC(=O)CCCn1c(=O)c2cc3c(cc2c2ccccc21)OCO3 [Compound 8, N-ethoxycarbonylpropylcrinasiadine] | > 10 µM | – |
| C/C=C/C=C/C(=O)N1C[C@H](C)NC[C@H]1C [Compound 15, nigragillin] | > 10 µM | – |
| CO[C@H]1C=C[C@@]23c4cc5c(cc4CN(C)[C@@H]2C(=O)N(C)[C@H]3C1)OCO5 [Compound 5, N-methyl-5,6-dihydroplicane] | > 10 µM | – |
| O[C@H]1[C@H]2c3cc4c(cc3CN3CCC(=C[C@@H]1O)[C@H]23)OCO4 [Compound 14, lycorine] | 0.81 to 13 µM | selectivity index compared to the Beas-2B cell line [2]: ≤ 10; cytotoxicity compared with positive control cis-platin [2, 4]: more potent cytotoxicity than one of the positive controls (cis-platin) |
| O=c1c2cc3c(cc2c2ccccc2n1CCc1ccccc1)OCO3 [Compound 9, N-phenethylcrinasiadine] | 0.81 to 13 µM | cytotoxicity compared with positive control cis-platin [2]: more potent cytotoxicity than one of the positive controls (cis-platin); selectivity index compared to the Beas-2B cell line [2]: ≤ 10 |
